From paper PMC6149822, “A New Series of Pyrrole-Based Chalcones: Synthesis and Evaluation of Antimicrobial Activity, Cytotoxicity, and Genotoxicity” (Molecules : A Journal of Synthetic Chemistry and Natural …, 2017) come the findings set out here.

Values after ≈ are worked out from the molar mass of the structure shown. Where only a bound is given, the exact number is not on record here.

A word on the MIC: it is the lowest concentration that inhibits growth of the organism. The low end stands for greater potency, the high end for weaker potency. One may read the IC50 as the concentration needed to halve the response being measured. The low end stands for greater potency in that assay, the high end for weaker potency in that assay. By melting point is commonly meant the temperature, or range, at which the solid turns liquid.

The test system of data set [1] is E. faecalis (ATCC 29212). Nature of the data set: Microdilution susceptibility assay (MIC). The format is cell-based. The conditions noted are these: Enterococcus faecalis, ATCC29212. How it is done: (§1) Compounds 1–10 were screened for their antimicrobial activity against gram-negative bacteria, gram-positive bacteria, and yeasts, listed in Table 1. Bacteria were grown in Mueller-Hinton Broth and yeasts were grown in Sabouraud Dextrose Broth (SDB) during experiments. Overnight cultures were prepared routinely by subculturing of stock culture onto Mueller-Hinton Agar for bacteria and Sabouraud Dextrose Agar for yeasts.
(§2) Microdilution susceptibility assay was used for the determination of antibacterial and anticandidal efficacy of compounds 1–10. Chloramphenicol and ketoconazole were used as positive controls for bacteria and yeasts, respectively. All experiments were designed according to the Clinical Laboratory Standards Institute (CLSI). All chemicals were dissolved in dimethyl sulfoxide (DMSO) to obtain stock solution (10 mg/mL). Two-fold serial dilutions (800, 400, 200...0.78 µg/mL) of the compounds were prepared from stock solutions with dH2O. 100 µL of each solution was transferred to 96-well microtiter plates and 100 µL of 10^6 CFU/mL of bacteria and 2 × 10^3 of CFU/mL yeast were added to related wells. As negative controls, wells including microorganisms without agents and wells including agents without microorganisms were used. The plates were kept at 35 °C for 18–20 h and the growth was determined with resazurin (20 mg/mL). Assays were carried out in triplicate.

The subject of a further data set is S. aureus (ATCC 25923). The data set can be described thus: Microdilution susceptibility assay (MIC). The conditions noted are these: Staphylococcus aureus, ATCC25923. Type of data set: cell-based. The protocol: as §1, §2
A general note: In broth dilution the organism is exposed to a series of concentrations in liquid medium.

Another data set concerns E. faecalis (ATCC 51299). Nature of the data set: Microdilution susceptibility assay (MIC). The conditions noted are these: Enterococcus faecalis, ATCC51299. The format is cell-based. The protocol:
as §1, §2

In data set [2] the test system is K. pneumoniae (ATCC 700603). Nature of the data set: Microdilution susceptibility assay (MIC). The format is cell-based. The conditions noted are these: Klebsiella pneumoniae, ATCC700603. How it is done:
as §1, §2

For the next data set, the system named is E. coli (ATCC 25922). The data set can be described thus: Microdilution susceptibility assay (MIC). The conditions noted are these: Escherichia coli, ATCC25922. Type of data set: cell-based. The protocol:
as §1, §2

In data set [3] the test system is A549 human lung adenocarcinoma cell line. Nature of the data set: MTT assay. The format is cell-based. The conditions noted are these: for IC50: Homo sapiens, A549. The protocol: (§3) The anticancer effects of compounds 1–10 on A549 human lung adenocarcinoma (ATCC® CCL-185™), HepG2 human hepatocellular carcinoma (ATCC® HB-8065™), and C6 rat glioma (ATCC® CCL107™) cell lines were assessed using 3-(4,5-Dimethylthiazol-2-yl)-2,5-diphenyltetrazolium bromide (MTT) assay, whereas the selectivity of compounds 1–10 was tested using NIH/3T3 mouse embryonic fibroblast cell line (ATCC® CRL-1658™, London, UK). All cell lines were incubated according to the supplier’s recommendations. The cells were seeded as 1 × 10^4 cells into each well of the 96-well plates. MTT assay was performed as previously described. The compounds were tested between the concentrations equal to 1 mM and 0.000316 mM (1.0, 0.316, 0.10, 0.0316, 0.01, 0.00316, 0.001, 0.000316 mM). Stock solutions of compounds were prepared in dimethyl sulfoxide (DMSO) and further dilutions were made with fresh culture medium. The final DMSO concentration was under 1% [34] and cisplatin was used as a positive control. Inhibition % was calculated for each concentration according to the formula below, and IC50 values were determined by plotting a dose–response curve of inhibition % versus compound concentrations tested. All experiments were performed in quadruplicate.Inhibition % = 100 − [(ODtest compound − ODblank/ODsolvent control − ODblank)] × 100(1)
Background: Tetrazolium assays rely on reduction of a dye to a coloured formazan, in cell work by metabolically active cells.

For data set [4], the system named is HepG2 human hepatocellular carcinoma cell line. Nature of the data set: MTT assay. The format is cell-based. The conditions noted are these: for IC50: Homo sapiens, HepG2. The protocol: as §3
The subject of another data set is C6 rat glioma cell line. The data set can be described thus: MTT assay. The conditions noted are these: for IC50: Rattus norvegicus, C6. Type of data set: cell-based. How it is done: as §3
In data set [5] the test system is NIH/3T3 mouse embryonic fibroblast cell line. Nature of the data set: MTT assay. Type of data set: cell-based. The conditions noted are these: for IC50: Mus musculus, NIH3T3, healthy cells for selectivity. The protocol: as §3
Another data set relates to C. glabrata (ATCC 90030). Nature of the data set: Microdilution susceptibility assay (MIC). Type of data set: cell-based, Candida glabrata. The conditions noted are these: Nakaseomyces glabratus, ATCC90030. The protocol: as §1, §2
The next data set concerns C. krusei (ATCC 6258). The data set can be described thus: Microdilution susceptibility assay (MIC). Type of data set: cell-based, Candida krusei. The conditions noted are these: Pichia kudriavzevii, ATCC6258. How it is done:
as §1, §2

The test system of a further data set is C. albicans (ATCC 90028). The data set can be described thus: Microdilution susceptibility assay (MIC). The format is cell-based. The conditions noted are these: Candida albicans, ATCC90028. How it is done:
as §1, §2

Data set [6] deals with E. faecalis (ATCC 29212). Nature of the data set: ATP luminescence microbial cell viability assay. The conditions noted are these: 24 h treatment, result in words. Type of data set: cell-based, Enterococcus faecalis. The protocol: (§4) A model from BioTek Instruments Inc. combined with a BacTiter-Glo^TM Microbial Cell Viability assay (Promega Corp., Madison, WI, USA) was used to provide a sensitive and rapid method for determining the number of viable microbial cells in culture based on quantitation of the ATP present. […] After incubation, cultures were added into the wells (final concentration of bacteria was 5 × 10^5 CFU/mL and 2.5 × 10^6 CFU/mL for yeasts). After adding the BacTiter reagent, incubation time for bacteria and yeasts was 5 min and 15 min, respectively.
(§5) The assay generates a “glow-type” luminescent signal, produced by the luciferase reaction. Briefly, after chemicals and strains were incubated for 24 h, 100 µL of the culture was taken from each well and mixed with the same volume of the BacTiter-Glo™ reagent in a white, opaque-walled microtiter plate. Control wells containing medium without cells were prepared to obtain a value for background luminescence. Cells without compound were used as an ATP-positive control. The microplates were further incubated under agitation for 7 min. Bioluminescence was recorded in a multi-detection microplate reader (BioTek Synergy 2 Multi-Mode Microplate Reader, BioTek Instruments, Winooski, VT, USA). In Figure 3, results were given as percentage of untreated control, which is set at 100%. Experiments were performed in triplicate and each sample was measured in four replicates.

Data set [7] has as its system C. parapsilosis (ATCC 22019). Nature of the data set: Microdilution susceptibility assay (MIC). The conditions noted are these: Lodderomyces parapsilosis, ATCC22019. The format is cell-based, Candida parapsilosis. The protocol: as §1, §2
For a further data set, the system named is C. glabrata. The data set can be described thus: ATP luminescence microbial cell viability assay. Type of data set: cell-based, Candida glabrata. The conditions noted are these: 24 h treatment, result in words. How it is done: as §4, §5

For `O=C(N[C@H](CO)[C@H](O)c1ccc([N+](=O)[O-])cc1)C(Cl)Cl` [Chloramphenicol, reference compound], the MIC in the data set with E. faecalis (ATCC 29212) [1] was 50 µg/mL (≈ 155 µM); in the data set on S. aureus (ATCC 25923), 25 µg/mL (≈ 77.4 µM); against E. faecalis (ATCC 51299), 100 µg/mL (≈ 309 µM); in data set [2], 50 µg/mL (≈ 155 µM); in the data set with E. coli (ATCC 25922), 25 µg/mL (≈ 77.4 µM).

As to `N.N.[Cl][Pt][Cl]` [Cisplatin, reference compound], in data set [3], the “IC50 A549 Cell Line” value amounted to 19 µg/mL. In [4], the “IC50 HepG2 Cell Line” value was determined as 38 µg/mL. In the data set with C6 rat glioma cell line, the “IC50 C6 Cell Line” value turned out to be 46 µg/mL. For the same molecule, the “IC50 NIH/3T3 Cell Line” value in [5] (healthy cells for selectivity) was above 300 µg/mL.

`Cn1cccc1C(=O)C=Cc1ccc(-c2ccc([N+](=O)[O-])cc2)o1` [Compound 1, 1-(1-Methyl-1H-pyrrol-2-yl)-3-(5-(4-nitrophenyl)furan-2-yl)prop-2-en-1-one] yielded a melting point of 179 to 181 °C. Moreover, the MIC in the data set on C. glabrata (ATCC 90030) came out at 200 µg/mL (≈ 621 µM). This molecule displayed an IC50 in [3] of 0.3 µg/mL (≈ 0.931 µM). The midpoint of inhibition in data set [4], the IC50, lay at 322 µg/mL (≈ 999 µM). In the data set with C6 rat glioma cell line, this molecule registered an IC50 of 84 µg/mL (≈ 261 µM). The molecule further gave an IC50 in data set [5] of 109 µg/mL (≈ 338 µM). Inhibition of growth with C. krusei (ATCC 6258) (MIC) required 200 µg/mL (≈ 621 µM). The same molecule gave a minimal inhibitory concentration (MIC) in the data set with E. faecalis (ATCC 29212) [1] of 100 µg/mL (≈ 310 µM). The same molecule yielded an MIC with S. aureus (ATCC 25923) of 200 µg/mL (≈ 621 µM). This molecule registered an MIC in the data set with C. albicans (ATCC 90028) of 100 µg/mL (≈ 310 µM). Also, the MIC in the data set on E. faecalis (ATCC 51299) was determined as 200 µg/mL (≈ 621 µM). The same molecule yielded an MIC in data set [2] of 200 µg/mL (≈ 621 µM). In addition, in the data set with E. coli (ATCC 25922), inhibition of growth (MIC) required 100 µg/mL (≈ 310 µM). In addition, the “antimicrobial activity in ATP bioluminescence assay” value in the data set on E. faecalis (ATCC 29212) [6] is “sensitive”. In data set [7], this molecule registered an MIC of 100 µg/mL (≈ 310 µM).

As to `Cn1cccc1C(=O)C=Cc1ccc(-c2ccc(Cl)cc2[N+](=O)[O-])o1` [Compound 4, 1-(1-Methyl-1H-pyrrol-2-yl)-3-(5-(2-nitro-4-chlorophenyl)furan-2-yl)prop-2-en-1-one], the melting point lay within 133 to 134 °C. Further, inhibition of growth against C. glabrata (ATCC 90030) (MIC) required 100 µg/mL (≈ 280 µM). Also, the IC50 in [3] was above 357 µg/mL. The molecule also yielded an IC50 in [4] of 100 µg/mL (≈ 280 µM). Moreover, the IC50 in the data set with C6 rat glioma cell line is above 357 µg/mL. Moreover, half-maximal inhibition in data set [5] (IC50) required 36 µg/mL (≈ 101 µM). Besides, the lowest concentration to inhibit growth in the data set with C. krusei (ATCC 6258) (MIC) was 200 µg/mL (≈ 561 µM). For the same molecule, in the data set with C. glabrata, the “antifungal activity in ATP bioluminescence assay” value is reported as “antifungal activity close to ketoconazole”. Further, the MIC against E. faecalis (ATCC 29212) [1] is 200 µg/mL (≈ 561 µM). In addition, it took 100 µg/mL (≈ 280 µM) to inhibit growth against S. aureus (ATCC 25923) (MIC). In the data set with C. albicans (ATCC 90028), this molecule yielded an MIC of 200 µg/mL (≈ 561 µM). This molecule had an MIC against E. faecalis (ATCC 51299) of 200 µg/mL (≈ 561 µM). The molecule further gave an MIC in data set [2] of 100 µg/mL (≈ 280 µM). In the data set with E. coli (ATCC 25922), the minimal inhibitory concentration (MIC) was 100 µg/mL (≈ 280 µM). In [7], this molecule returned an MIC of 50 µg/mL (≈ 140 µM).
